ChEMBL document CHEMBL5678807, “A selective jumonji H3K27 demethylase inhibitor modulates the proinflammatory macrophage response” (Nature, 2012)

Tests used:
[1] = test system: Macrophage; test: Antiinflammatory activity in human primary macrophages assessed as effect on LPS-induced TNFSF11 gene expression at 30 uM measured after 2 hrs by RT-PCR array (reference value: 32 a.u.); format: functional
[2] = test system: Macrophage; test: Antiinflammatory activity in human primary macrophages assessed as effect on LPS-induced CSF1 gene expression at 30 uM measured after 2 hrs by RT-PCR array (reference value: 287895 a.u.); format: functional
[3] = test system: Macrophage; test: Antiinflammatory activity in human primary macrophages assessed as effect on LPS-induced IL15 gene expression at 30 uM measured after 2 hrs by RT-PCR array (reference value: 62425 a.u.); format: functional
[4] = test system: Macrophage; test: Antiinflammatory activity in human primary macrophages assessed as effect on LPS-induced IL17C gene expression at 30 uM measured after 2 hrs by RT-PCR array (reference value: 157 a.u.); format: functional
[5] = test system: Macrophage; test: Antiinflammatory activity in human primary macrophages assessed as effect on LPS-induced IFNA1 gene expression at 30 uM measured after 2 hrs by RT-PCR array (reference value: 462 a.u.); format: functional
[6] = test system: Macrophage; test: Antiinflammatory activity in human primary macrophages assessed as effect on LPS-induced TNFSF4 gene expression at 30 uM measured after 2 hrs by RT-PCR array (reference value: 880 a.u.); format: functional
[7] = test system: Macrophage; test: Antiinflammatory activity in human primary macrophages assessed as effect on LPS-induced TNF gene expression at 30 uM measured after 2 hrs by RT-PCR array (reference value: 7222474 a.u.); format: functional
[8] = test system: Macrophage; test: Antiinflammatory activity in human primary macrophages assessed as effect on LPS-induced GDF9 gene expression at 30 uM measured after 2 hrs by RT-PCR array (reference value: 113 a.u.); format: functional
[9] = test system: Macrophage; test: Antiinflammatory activity in human primary macrophages assessed as effect on LPS-induced IL8 gene expression at 30 uM measured after 2 hrs by RT-PCR array (reference value: 11155386 a.u.); format: functional
[10] = test system: Macrophage; test: Antiinflammatory activity in human primary macrophages assessed as effect on LPS-induced LTB gene expression at 30 uM measured after 2 hrs by RT-PCR array (reference value: 6025 a.u.); format: functional
[11] = test system: Macrophage; test: Antiinflammatory activity in human primary macrophages assessed as effect on LPS-induced FASLG gene expression at 30 uM measured after 2 hrs by RT-PCR array (reference value: 73 a.u.); format: functional
[12] = test system: Macrophage; test: Antiinflammatory activity in human primary macrophages assessed as effect on LPS-induced FAM3B gene expression at 30 uM measured after 2 hrs by RT-PCR array (reference value: 996 a.u.); format: functional
[13] = test system: Macrophage; test: Antiinflammatory activity in human primary macrophages assessed as effect on LPS-induced TGFA gene expression at 30 uM measured after 2 hrs by RT-PCR array (reference value: 3224 a.u.); format: functional
[14] = molecular target: Histone deacetylase 11 (Homo sapiens, UniProt Q96DB2); test: Inhibition of human HDAC11 by FLINT assay
[15] = molecular target: Histone deacetylase 4 (Homo sapiens, UniProt P56524); test: Inhibition of human HDAC4 by FLINT assay
[16] = molecular target: Sodium-dependent serotonin transporter (Homo sapiens, UniProt P31645); test: Binding affinity to human SERT by SPA
[17] = molecular target: Beta-2 adrenergic receptor (Homo sapiens, UniProt P07550); test: Agonist activity at human beta2 adrenoceptor by TR-FRET assay; format: functional
[18] = molecular target: Kappa-type opioid receptor (Homo sapiens, UniProt P41145); test: Agonist activity at human OPRK-1 by SPA; format: functional
[19] = molecular target: T1, Muscarinic acetylcholine receptor M1 (Homo sapiens, UniProt P11229); test: Agonist activity at human CHRM1 by intracellular Ca fluorescence assay; format: functional, cell-based
T1 sequence (P11229 whole entry): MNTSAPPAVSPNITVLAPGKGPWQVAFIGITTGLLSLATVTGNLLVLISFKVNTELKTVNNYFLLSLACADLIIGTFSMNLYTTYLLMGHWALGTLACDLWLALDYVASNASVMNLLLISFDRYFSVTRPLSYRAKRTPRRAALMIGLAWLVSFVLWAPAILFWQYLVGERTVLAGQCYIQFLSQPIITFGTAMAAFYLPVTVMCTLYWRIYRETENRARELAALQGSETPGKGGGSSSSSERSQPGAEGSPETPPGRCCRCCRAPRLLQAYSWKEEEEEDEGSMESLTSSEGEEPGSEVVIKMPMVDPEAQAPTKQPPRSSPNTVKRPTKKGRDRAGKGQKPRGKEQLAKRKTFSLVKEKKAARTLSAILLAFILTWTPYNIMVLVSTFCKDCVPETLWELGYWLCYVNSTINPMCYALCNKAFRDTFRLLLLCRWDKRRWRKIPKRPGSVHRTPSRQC

[20] = molecular target: D(1A) dopamine receptor (Homo sapiens, UniProt P21728); test: Antagonist activity at human dopamine 1 receptor by TR-FRET assay; format: functional
[21] = molecular target: Alpha-1B adrenergic receptor (Homo sapiens, UniProt P35368); test: Antagonist activity at human adrenergic alpha 1B by intracellular Ca luminescence assay; format: functional, cell-based
[22] = molecular target: Sodium-dependent noradrenaline transporter (Homo sapiens, UniProt P23975); test: Binding affinity to human NET by SPA
[23] = Drug uptake in human primary macrophage lysates at 30 uM measured after 1 hr by RP LC-MS/MS analysis; format: ADME, subcellular
[24] = molecular target: Mu-type opioid receptor (Homo sapiens, UniProt P35372); test: Agonist activity at human OPRM-1 by SPA; format: functional
[25] = molecular target: Acetylcholine receptor subunit alpha (Homo sapiens, UniProt P02708); test: Antagonist activity at human alpha 1 nAChR by intracellular Ca fluorescence assay; format: cell-based
[26] = molecular target: Cannabinoid receptor 2 (Homo sapiens, UniProt P34972); test: Agonist activity at human cannabinoid CB2 receptor by Yeast FDGlu assay; format: functional
[27] = molecular target: T2, Muscarinic acetylcholine receptor M2 (Homo sapiens, UniProt P08172); test: Antagonist activity at human CHRM2 by intracellular Ca fluorescence assay; format: functional, cell-based
T2 sequence (P08172 whole entry): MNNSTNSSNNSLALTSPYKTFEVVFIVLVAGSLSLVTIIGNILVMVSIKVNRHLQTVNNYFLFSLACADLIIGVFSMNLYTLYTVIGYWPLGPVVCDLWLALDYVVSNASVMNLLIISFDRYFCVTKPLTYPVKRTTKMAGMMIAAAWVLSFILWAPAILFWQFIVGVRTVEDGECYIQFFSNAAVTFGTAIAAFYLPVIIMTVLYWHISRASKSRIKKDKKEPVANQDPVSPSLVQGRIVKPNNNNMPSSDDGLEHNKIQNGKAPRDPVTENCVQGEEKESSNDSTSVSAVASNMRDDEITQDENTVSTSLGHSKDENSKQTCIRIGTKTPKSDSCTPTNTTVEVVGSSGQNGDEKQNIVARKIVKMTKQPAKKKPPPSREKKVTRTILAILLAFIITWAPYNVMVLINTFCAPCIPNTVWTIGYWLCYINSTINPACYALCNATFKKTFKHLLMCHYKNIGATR

[28] = molecular target: T2, Muscarinic acetylcholine receptor M2; test: Agonist activity at human CHRM2 by intracellular Ca fluorescence assay; format: functional, cell-based
[29] = molecular target: 5-hydroxytryptamine receptor 1B (Homo sapiens, UniProt P28222); test: Antagonist activity at human 5-HT1B by SPA; format: functional
Sequence of 5-hydroxytryptamine receptor 1B (P28222 whole entry): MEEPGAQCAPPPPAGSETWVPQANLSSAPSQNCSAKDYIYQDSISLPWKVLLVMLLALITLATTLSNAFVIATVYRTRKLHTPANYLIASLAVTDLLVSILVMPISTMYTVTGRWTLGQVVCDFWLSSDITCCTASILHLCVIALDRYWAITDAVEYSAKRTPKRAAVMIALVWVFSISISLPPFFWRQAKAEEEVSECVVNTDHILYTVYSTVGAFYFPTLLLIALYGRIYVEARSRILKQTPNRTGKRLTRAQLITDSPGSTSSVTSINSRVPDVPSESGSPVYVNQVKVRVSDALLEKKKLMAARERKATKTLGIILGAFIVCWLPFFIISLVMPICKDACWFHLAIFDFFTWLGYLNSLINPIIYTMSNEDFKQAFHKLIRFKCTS

Sequence of Sodium-dependent noradrenaline transporter (P23975 whole entry): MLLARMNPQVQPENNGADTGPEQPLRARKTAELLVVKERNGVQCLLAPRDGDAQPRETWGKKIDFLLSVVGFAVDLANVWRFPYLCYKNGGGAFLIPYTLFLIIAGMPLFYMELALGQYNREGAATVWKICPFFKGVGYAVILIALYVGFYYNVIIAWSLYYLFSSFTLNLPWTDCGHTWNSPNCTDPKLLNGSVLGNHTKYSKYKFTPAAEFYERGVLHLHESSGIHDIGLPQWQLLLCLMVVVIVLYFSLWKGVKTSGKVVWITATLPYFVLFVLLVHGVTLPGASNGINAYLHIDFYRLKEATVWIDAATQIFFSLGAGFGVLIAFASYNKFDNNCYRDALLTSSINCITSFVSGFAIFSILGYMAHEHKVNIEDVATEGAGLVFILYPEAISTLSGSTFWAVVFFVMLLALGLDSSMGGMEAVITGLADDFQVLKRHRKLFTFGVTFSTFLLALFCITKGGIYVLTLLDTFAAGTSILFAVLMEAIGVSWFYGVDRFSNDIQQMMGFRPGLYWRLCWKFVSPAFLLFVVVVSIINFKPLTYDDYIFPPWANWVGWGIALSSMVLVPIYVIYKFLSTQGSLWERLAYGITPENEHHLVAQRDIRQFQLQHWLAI
Sequence of Histone deacetylase 11 (Q96DB2 whole entry): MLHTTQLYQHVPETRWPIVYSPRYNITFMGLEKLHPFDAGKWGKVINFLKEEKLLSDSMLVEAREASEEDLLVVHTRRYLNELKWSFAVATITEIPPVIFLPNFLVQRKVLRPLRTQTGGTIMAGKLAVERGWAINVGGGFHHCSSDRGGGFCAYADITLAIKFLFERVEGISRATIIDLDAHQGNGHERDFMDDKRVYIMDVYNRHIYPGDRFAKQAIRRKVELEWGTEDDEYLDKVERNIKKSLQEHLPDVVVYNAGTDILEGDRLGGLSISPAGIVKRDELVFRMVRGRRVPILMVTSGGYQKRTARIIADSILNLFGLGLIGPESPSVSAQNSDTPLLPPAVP
Sequence of Sodium-dependent serotonin transporter (P31645 whole entry): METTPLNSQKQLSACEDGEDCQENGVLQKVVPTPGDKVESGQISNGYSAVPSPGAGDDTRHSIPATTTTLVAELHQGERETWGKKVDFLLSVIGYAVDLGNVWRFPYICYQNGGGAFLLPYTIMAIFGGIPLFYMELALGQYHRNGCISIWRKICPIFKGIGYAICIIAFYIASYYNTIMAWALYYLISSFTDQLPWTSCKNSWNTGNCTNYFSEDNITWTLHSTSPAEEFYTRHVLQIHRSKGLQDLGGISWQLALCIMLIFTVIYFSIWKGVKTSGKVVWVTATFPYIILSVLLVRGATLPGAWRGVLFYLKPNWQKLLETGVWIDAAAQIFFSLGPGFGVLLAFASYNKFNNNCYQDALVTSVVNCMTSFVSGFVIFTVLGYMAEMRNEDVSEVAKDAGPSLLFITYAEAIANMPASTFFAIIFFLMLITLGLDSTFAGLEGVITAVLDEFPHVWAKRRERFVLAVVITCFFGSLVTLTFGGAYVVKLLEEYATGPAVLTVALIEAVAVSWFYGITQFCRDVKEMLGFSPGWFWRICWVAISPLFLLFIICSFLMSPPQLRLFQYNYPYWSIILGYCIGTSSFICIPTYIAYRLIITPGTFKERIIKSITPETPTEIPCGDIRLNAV
Sequence of D(1A) dopamine receptor (P21728 whole entry): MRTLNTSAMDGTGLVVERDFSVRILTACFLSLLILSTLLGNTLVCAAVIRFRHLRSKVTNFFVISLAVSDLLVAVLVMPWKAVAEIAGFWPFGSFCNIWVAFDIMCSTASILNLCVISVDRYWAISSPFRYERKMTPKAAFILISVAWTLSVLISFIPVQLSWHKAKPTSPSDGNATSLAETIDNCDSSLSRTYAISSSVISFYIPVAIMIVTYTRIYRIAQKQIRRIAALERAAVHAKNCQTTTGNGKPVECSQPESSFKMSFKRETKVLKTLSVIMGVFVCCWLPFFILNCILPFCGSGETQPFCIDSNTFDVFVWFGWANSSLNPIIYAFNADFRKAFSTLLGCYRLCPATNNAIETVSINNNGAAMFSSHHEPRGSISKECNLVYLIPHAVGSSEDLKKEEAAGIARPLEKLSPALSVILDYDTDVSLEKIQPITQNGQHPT
Sequence of Acetylcholine receptor subunit alpha (P02708 whole entry): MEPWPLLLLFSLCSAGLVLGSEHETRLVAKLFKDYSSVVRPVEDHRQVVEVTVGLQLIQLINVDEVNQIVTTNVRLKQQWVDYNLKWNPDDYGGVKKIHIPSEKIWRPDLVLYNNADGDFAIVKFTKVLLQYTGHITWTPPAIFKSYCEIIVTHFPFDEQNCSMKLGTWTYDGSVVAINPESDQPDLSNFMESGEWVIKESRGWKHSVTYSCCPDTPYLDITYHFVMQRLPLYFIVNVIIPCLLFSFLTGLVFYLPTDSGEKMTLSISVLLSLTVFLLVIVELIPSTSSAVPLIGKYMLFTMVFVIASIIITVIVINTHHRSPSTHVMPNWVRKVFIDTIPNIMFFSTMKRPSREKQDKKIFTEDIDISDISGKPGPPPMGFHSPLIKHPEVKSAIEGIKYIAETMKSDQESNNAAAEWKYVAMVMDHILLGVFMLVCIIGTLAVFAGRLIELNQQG
Sequence of Cannabinoid receptor 2 (P34972 whole entry): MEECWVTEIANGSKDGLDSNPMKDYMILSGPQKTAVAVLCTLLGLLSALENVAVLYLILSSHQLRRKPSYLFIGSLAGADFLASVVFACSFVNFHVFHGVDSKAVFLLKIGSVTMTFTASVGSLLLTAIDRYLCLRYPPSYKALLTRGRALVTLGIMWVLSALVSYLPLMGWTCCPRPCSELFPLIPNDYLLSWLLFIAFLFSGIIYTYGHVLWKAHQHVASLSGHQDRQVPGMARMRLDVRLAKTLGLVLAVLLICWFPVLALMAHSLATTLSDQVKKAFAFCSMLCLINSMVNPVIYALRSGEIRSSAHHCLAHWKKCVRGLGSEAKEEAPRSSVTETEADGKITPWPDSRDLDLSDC
Sequence of Beta-2 adrenergic receptor (P07550 whole entry): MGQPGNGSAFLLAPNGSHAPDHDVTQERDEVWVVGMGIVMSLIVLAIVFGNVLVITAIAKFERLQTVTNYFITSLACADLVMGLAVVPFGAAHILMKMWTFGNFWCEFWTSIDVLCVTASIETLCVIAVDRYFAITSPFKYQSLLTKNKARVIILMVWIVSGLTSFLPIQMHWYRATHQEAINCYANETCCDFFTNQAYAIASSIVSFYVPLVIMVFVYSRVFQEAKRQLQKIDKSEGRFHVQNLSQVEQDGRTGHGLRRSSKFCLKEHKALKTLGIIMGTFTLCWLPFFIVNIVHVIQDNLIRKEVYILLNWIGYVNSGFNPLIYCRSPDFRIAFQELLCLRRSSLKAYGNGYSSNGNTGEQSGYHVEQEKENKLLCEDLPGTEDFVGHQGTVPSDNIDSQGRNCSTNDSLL
Sequence of Kappa-type opioid receptor (P41145 whole entry): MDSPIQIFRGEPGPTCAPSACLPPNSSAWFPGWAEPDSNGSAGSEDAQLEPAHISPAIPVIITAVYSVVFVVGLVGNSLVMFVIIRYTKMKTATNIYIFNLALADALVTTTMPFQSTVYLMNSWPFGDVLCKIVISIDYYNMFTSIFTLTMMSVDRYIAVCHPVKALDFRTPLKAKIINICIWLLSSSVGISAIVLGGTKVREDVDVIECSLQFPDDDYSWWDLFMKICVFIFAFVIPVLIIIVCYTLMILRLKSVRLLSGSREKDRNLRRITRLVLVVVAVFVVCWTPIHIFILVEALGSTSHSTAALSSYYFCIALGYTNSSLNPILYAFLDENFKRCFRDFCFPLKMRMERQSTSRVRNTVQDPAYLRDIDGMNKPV
Sequence of Alpha-1B adrenergic receptor (P35368 whole entry): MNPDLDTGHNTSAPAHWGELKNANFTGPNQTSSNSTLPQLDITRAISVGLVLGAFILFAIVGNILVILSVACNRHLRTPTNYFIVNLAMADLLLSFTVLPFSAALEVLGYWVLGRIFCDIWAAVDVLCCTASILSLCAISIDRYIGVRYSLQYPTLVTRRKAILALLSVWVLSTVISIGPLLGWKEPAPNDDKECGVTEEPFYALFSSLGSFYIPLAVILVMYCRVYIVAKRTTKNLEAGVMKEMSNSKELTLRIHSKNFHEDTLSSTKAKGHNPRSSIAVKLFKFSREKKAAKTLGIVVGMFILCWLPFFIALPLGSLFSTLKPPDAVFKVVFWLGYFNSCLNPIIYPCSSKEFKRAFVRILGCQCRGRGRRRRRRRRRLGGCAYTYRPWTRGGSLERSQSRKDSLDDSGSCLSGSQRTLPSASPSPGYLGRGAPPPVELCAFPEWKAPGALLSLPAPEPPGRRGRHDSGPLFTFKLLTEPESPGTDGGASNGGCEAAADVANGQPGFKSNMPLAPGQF
Sequence of Mu-type opioid receptor (P35372 whole entry): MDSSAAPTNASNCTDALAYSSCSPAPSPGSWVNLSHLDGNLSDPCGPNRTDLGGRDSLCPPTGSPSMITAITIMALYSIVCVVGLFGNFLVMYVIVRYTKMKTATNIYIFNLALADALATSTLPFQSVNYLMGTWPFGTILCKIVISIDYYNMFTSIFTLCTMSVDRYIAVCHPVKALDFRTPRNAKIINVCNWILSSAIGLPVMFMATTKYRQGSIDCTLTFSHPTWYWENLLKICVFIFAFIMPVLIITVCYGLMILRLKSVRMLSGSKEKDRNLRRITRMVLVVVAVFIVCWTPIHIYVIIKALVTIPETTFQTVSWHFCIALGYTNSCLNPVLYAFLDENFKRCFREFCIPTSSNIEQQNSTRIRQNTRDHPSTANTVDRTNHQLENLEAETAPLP

**Q.** With `CCOC(=O)CCNc1cc(N2CCc3ccccc3CC2)nc(-c2ccccn2)n1` as the molecule, how does the Activity [1] read?
**A.** The Activity was 255 a.u.

**Q.** And the Activity [2]?
**A.** Its Activity is 140386 a.u.

**Q.** And the Activity [3]?
**A.** Its Activity is 4562 a.u.

**Q.** What about the Activity [4] of the same molecule?
**A.** Its Activity is 107 a.u.

**Q.** What about the Activity [5] of the same molecule?
**A.** The Activity was 285 a.u.

**Q.** What about the Activity [6] of the same molecule?
**A.** Its Activity is 1586 a.u.

**Q.** And the Activity [7]?
**A.** The Activity was 1593909 a.u.

**Q.** What about the Activity [8] of the same molecule?
**A.** Its Activity is 15 a.u.

**Q.** And the Activity [9]?
**A.** Its Activity is 1556795 a.u.

**Q.** What about the Activity [10] of the same molecule?
**A.** The Activity was 5493 a.u.

**Q.** What about the Activity [11] of the same molecule?
**A.** Its Activity is 19 a.u.

**Q.** What about the Activity [12] of the same molecule?
**A.** The Activity was 9 a.u.

**Q.** What about the Activity [13] of the same molecule?
**A.** The Activity was 3241 a.u.

**Q.** What does the source list for `O=C(O)CCNc1cc(N2CCc3ccccc3CC2)nc(-c2ccccn2)n1`?
**A.** XC50 [14]: > 300 µM; XC50 [15]: > 300 µM; XC50 [16]: > 100 µM; XC50 [17]: > 32 µM; XC50 [18]: > 100 µM; XC50 [19]: > 16 µM; XC50 [20]: > 32 µM; XC50 [21]: > 40 µM; XC50 [22]: > 100 µM; Drug uptake [23]: 1.6 µM; XC50 [24]: > 100 µM; XC50 [25]: 50 µM; XC50 [26]: > 32 µM; XC50 [27]: > 16 µM; XC50 [28]: > 16 µM; XC50 [29]: > 32 µM

**Q.** Which results are given for `O=C(O)CCNc1cc(N2CCc3ccccc3CC2)nc(-c2cccnc2)n1`?
**A.** XC50 [14]: > 300 µM; XC50 [15]: > 300 µM; XC50 [16]: > 100 µM; XC50 [17]: > 32 µM; XC50 [18]: > 100 µM; XC50 [19]: > 16 µM; XC50 [20]: > 32 µM; XC50 [21]: > 40 µM; XC50 [22]: > 100 µM; Drug uptake [23]: 7.8 µM; XC50 [24]: > 100 µM; XC50 [25]: 16 µM; XC50 [26]: > 32 µM; XC50 [27]: > 16 µM; XC50 [28]: > 16 µM; XC50 [29]: > 32 µM

**Q.** With `CCOC(=O)CCNc1cc(N2CCc3ccccc3CC2)nc(-c2cccnc2)n1` as the molecule, how does the Activity [1] read?
**A.** The Activity was 27 a.u.

**Q.** And the Activity [2]?
**A.** The Activity was 211785 a.u.

**Q.** What about the Activity [3] of the same molecule?
**A.** Its Activity is 40115 a.u.

**Q.** What about the Activity [4] of the same molecule?
**A.** The Activity was 253 a.u.

**Q.** What about the Activity [5] of the same molecule?
**A.** Its Activity is 835 a.u.

**Q.** What about the Activity [6] of the same molecule?
**A.** Its Activity is 512 a.u.

**Q.** What about the Activity [7] of the same molecule?
**A.** Its Activity is 5261995 a.u.

**Q.** What about the Activity [8] of the same molecule?
**A.** The Activity was 64 a.u.

**Q.** And the Activity [9]?
**A.** The Activity was 5618140 a.u.

**Q.** And the Activity [10]?
**A.** Its Activity is 5856 a.u.

**Q.** And the Activity [11]?
**A.** Its Activity is 45 a.u.

**Q.** And the Activity [12]?
**A.** Its Activity is 466 a.u.

**Q.** And the Activity [13]?
**A.** Its Activity is 2862 a.u.
